Measurements published in US20260035364A1, “BICYCLIC TETRAHYDROTHIAZEPINE DERIVATIVES” (Hoffmann-La Roche Inc., priority 2022, published 2026).

Legend:
primary human T-cells = experiment: T-cell proliferation assay (CellTiter-Glo); type: cell-based; details: Homo sapiens, T-cell, 120 h, CD3 condition; for Emax: 5 days, 20 μM reference compound A1 = 100%, read-out: Emax proliferation (% activation); for EC50: proliferation after 5 days, CellTiter-Glo, read-out: Tcell Proliferation CD3 EC50
Method: Expanded primary human T-cells are thawed and cultured in RPMI 1640 (Gibco, #61870-010)+5% human serum (HS, Sigma, #H3667)+1 mM Sodium Pyruvate (Gibco, #11360-039)+50 μM 2-mercaptoethanol (Gibco, #31350-010) and 1× Pen-Strep (Life Technologies, #15140122) medium at density of 2 Mio/ml for 3 hours in 5% CO2, 37° C. and 95% humidity. For coating of plates, PBS++ only or PBS++ with CD3 antibody (concentration depending on donor and determined by CD3 titrations) is added 100 μl/well to Poly-D Lysine coated 96-well plates. Plates are sealed and incubated at room temperature for 3 hours on a table-top rocking platform. After incubation, plates are washed once with PBS−− and filled with 40 μl/well culture medium only. Compounds are then added (see next section) to medium only plates. After 3 hours of culturing the T-cells, cells are filtered through a cell strainer (Miltenyi Biotech, #130-041-407), counted again and concentration is adjusted to 1.25 Mio/ml.
Cells are then seeded 80 μl/well to the 40 µl/well including dispensed compounds according to plate layout. By adding cells, compounds are further diluted 1:3, and resulting in 100k cells/120 µl/well. After 48 hours 40 μl of supernatant is collected carefully from the top while not disturbing the cells. Cells are assessed for proliferation 5 days later by measuring […] using CellTiterGlo (Promega).
Compounds were added in a 5 or 6 pt dose response with the Tecan D300e Digital Dispenser, all conditions 3 times more concentrated than the end-concentration, since cells are added afterwards (80p1 cells to 40p1 prepared medium with treatment). The DR was starting at 20 μM or 10 μM final top concentration and a dilution factor of 3.333. The positive control was the reference compound A1 that was added in a dose response as well, additionally to 3 wells of only 20 μM representing the positive stimulator control. All wells were normalized with DMSO to a final concentration of 0.6% (0.2% end-concentration).
After 5 days, for detection of ATP which is directly proportional to the number of cells present per well, the CellTiter-Glo® 2.0 Reagent is used. After visual control for toxicity or precipitations of the tested compounds, the plates are equilibrated to room temperature for 45 minutes. CellTiter-Glo® 2.0 Reagent is equilibrated to room temperature as well. After equilibration, an equal amount of CellTiter-Glo reagent is added to the cells (80 µl/well) with an electronic multichannel pipette. Plates are placed on a rocking platform for 15 minutes at room temperature. After incubation, the bottom of the plates is sealed with backing tape. Luminescence is measured with PHERAstar FSX (interval time 0.5 sec, gain 3000, focal height 15 mm) and exported as CSV file for analysis in Genedata screener.
Calculations and Data Reporting CD3 and PBS plates were analysed separately in Genedata Screener using Roche Normalization PCT_POS_CTRL with DMSO set as Neutral Control and 20 μM of the reference compound A1 set as Stimulator Control/100%.
For CD3 conditions EC50 and Emax of the fitted sigmoidal curve were reported. If no curve could be fitted, the EC50 was reported as blank field and the Emax was based on individual data points. […] Compounds which activate unstimulated cells (see IL2 measurements) or compounds which negatively affected viability were flagged.

DGKzeta = DGKzeta (Homo sapiens, UniProt Q13574); experiment: In vitro DGK inhibition assay (ADP-Glo, liposomes), DGKzeta; type: biochemical; set-up: hDGKzeta(1-928)-N-His; His (N); made in house; host or cells: Sf21 insect cells (baculovirus); details: 2 nM DGK ζ, 50 μM ATP, 125 uM DLG in liposomes, 1 hour reaction
Method: (§1) DGK α and ζ kinases use ATP to phosphorylate the substrate 1,2-dilauroyl-sn-glycerol (DLG, incorporated in the liposomes). ATP is converted to ADP as a result of this enzymatic reaction. After the kinase reaction, an ATP-depletion reagent is added to terminate the kinase reaction and deplete any remaining ATP, leaving only ADP. Second, a detection reagent is added to simultaneously convert ADP to ATP and allow the newly synthesized ATP to be converted to light using a coupled luciferase/luciferin reaction.
(§2) Purification of both enzymes was performed as previously described by Takahashi et al., PeerJ, 2018 (Takahashi, D.; Sakane, F. Expression and purification of human diacylglycerol kinase alpha from baculovirus-infected insect cells for structural studies. PeerJ 2018, 6, No. e5449).
(§3) A concentrated liposome solution was prepared in assay buffer without DTT and BSA: 2 mM of DLG in 21 mM of total liposome (2 mM DLG/8 mM PS/11 mM PC). The reaction mixtures contain the assay buffer with a final DLG concentration of 125 uM ATP concentrations of 25 μM (for DGKA assay) or 50 μM (for DGKZ assay). The reactions were started by addition of DGK a and (kinases at 4 nM and 2 nM final concentrations, respectively. After 1 hour reaction, the amount of ADP formed was detected with the ADP-Glo kinase assay (Promega) according to the manufacturer instructions. Compounds were added in 11-points dose response, starting at […], 1:3 dilutions, with a final DMSO concentration of 2%. The multidrop combi was used as a liquid handler and luminescence was read with 0.5 s by the envision reader (PE).

DGKalpha = DGKalpha (Homo sapiens, UniProt P23743); experiment: In vitro DGK inhibition assay (ADP-Glo, liposomes), DGKalpha; type: biochemical; set-up: hDGKalpha(1-735)-N-His; His (N); made in house; host or cells: Sf21 insect cells (baculovirus); details: 4 nM DGK α, 25 μM ATP, 125 uM DLG in liposomes, 1 hour reaction
Method: as §1
as §2, with “Full length DGKA and Z were expressed in Sf21 insect cells by infecting the cells with the baculovirus stock at MOI of 2. Purification” for “Purification”
as §3

Chain of DGKzeta (Q13574 whole entry): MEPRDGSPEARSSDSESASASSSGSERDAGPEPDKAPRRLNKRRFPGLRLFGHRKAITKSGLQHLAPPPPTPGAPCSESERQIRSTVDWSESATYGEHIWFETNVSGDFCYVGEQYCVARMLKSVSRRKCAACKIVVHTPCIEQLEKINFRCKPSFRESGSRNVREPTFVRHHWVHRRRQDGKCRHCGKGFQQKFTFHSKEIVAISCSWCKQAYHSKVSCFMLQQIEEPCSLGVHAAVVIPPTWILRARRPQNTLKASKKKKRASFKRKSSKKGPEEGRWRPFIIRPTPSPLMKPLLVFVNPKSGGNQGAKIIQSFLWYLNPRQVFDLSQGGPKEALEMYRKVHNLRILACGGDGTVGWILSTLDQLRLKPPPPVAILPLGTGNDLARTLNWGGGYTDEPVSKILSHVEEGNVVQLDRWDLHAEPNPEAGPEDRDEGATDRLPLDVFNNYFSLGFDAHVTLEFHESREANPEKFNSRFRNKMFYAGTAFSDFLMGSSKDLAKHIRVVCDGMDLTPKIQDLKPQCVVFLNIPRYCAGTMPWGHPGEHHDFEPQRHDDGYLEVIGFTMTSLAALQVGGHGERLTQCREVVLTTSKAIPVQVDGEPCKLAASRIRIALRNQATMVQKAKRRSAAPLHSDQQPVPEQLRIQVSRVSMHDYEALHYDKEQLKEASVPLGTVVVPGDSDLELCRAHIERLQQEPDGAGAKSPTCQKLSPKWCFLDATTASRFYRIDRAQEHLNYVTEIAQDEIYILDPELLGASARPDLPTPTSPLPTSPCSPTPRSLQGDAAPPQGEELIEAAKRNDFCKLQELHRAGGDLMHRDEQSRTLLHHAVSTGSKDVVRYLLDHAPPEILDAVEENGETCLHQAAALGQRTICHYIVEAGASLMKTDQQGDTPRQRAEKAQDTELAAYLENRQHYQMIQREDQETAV
Chain of DGKalpha (P23743 whole entry): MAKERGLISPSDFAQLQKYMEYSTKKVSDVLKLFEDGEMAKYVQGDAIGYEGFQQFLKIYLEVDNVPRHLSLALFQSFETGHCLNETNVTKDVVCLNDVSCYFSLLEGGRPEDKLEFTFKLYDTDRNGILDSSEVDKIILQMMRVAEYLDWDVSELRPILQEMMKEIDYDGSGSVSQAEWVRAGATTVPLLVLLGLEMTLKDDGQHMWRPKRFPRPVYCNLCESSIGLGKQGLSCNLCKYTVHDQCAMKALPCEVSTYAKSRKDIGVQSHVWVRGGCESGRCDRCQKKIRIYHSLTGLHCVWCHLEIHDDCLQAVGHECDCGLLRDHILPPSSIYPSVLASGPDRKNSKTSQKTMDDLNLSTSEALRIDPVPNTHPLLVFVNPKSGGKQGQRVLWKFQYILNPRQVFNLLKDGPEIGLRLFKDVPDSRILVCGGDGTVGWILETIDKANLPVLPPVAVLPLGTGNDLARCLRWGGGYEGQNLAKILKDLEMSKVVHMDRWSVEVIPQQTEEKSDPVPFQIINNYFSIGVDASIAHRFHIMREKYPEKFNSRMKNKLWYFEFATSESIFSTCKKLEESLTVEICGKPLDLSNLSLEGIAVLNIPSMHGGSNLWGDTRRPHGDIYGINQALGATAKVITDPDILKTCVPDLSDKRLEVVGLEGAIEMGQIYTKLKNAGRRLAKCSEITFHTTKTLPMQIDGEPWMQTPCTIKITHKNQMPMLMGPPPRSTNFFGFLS

SMILES | IC50 (DGKzeta) [nM] | IC50 (DGKalpha) [nM] | Emax (primary human T-cells) [%] | EC50 (primary human T-cells) [nM]
CS(=O)(=O)C1(c2nnc(-c3cc4c(cc3F)S(=O)(=O)C[C@H](N)C(=O)N4Cc3ccc(Cl)cc3)o2)CC1 [Example 1, (3R)-3-amino-5-[(4-chlorophenyl)methyl]-8-fluoro-7-[5-(1-methylsulfonylcyclopropyl)-1,3,4-oxadiazol-2-yl]-1,1-dioxo-2,3-dihydro-1λ6,5-benzothiazepin-4-one] | 989 | 2340 | 99 | 2290
CC(C)(c1nnc(-c2cc3c(cc2F)S(=O)(=O)C[C@H](N)C(=O)N3Cc2ccc(Cl)cc2)o1)S(C)(=O)=O [Example 2, (3R)-3-amino-5-[(4-chlorophenyl)methyl]-8-fluoro-7-[5-(1-methyl-1-methylsulfonyl-ethyl)-1,3,4-oxadiazol-2-yl]-1,1-dioxo-2,3-dihydro-1λ6,5-benzothiazepin-4-one] | 1380 | 1090 | 123 | 399
CC(C)(c1nnc(-c2ccc3c(c2)N(Cc2ccc(OC(F)(F)C(F)F)cc2)C(=O)[C@@H](N)CS3(=O)=O)o1)S(C)(=O)=O [Example 3, (3R)-3-amino-7-[5-(1-methyl-1-methylsulfonyl-ethyl)-1,3,4-oxadiazol-2-yl]-1,1-dioxo-5-[[4-(1,1,2,2-tetrafluoroethoxy)phenyl]methyl]-2,3-dihydro-126,5-benzothiazepin-4-one] | 978 | 1730 | 66 | 5070
CC(C)(c1nnc(-c2ccc3c(c2)N(Cc2ccc(Oc4ccccc4)cc2)C(=O)[C@@H](N)CS3(=O)=O)o1)S(C)(=O)=O [Example 5, (3R)-3-amino-7-[5-(1-methyl-1-methylsulfonyl-ethyl)-1,3,4-oxadiazol-2-yl]-1,1-dioxo-5-[(4-phenoxyphenyl)methyl]-2,3-dihydro-1λ6,5-benzothiazepin-4-one] | 701 | 3120 | 120 | 942
CC(C)(c1nnc(-c2ccc3c(c2)N(Cc2ccc(OCC(F)(F)F)cc2)C(=O)[C@@H](N)CS3(=O)=O)o1)S(C)(=O)=O [Example 6, (3R)-3-amino-7-[5-(1-methyl-1-methylsulfonyl-ethyl)-1,3,4-oxadiazol-2-yl]-1,1-dioxo-5-[[4-(2,2,2-trifluoroethoxy)phenyl]methyl]-2,3-dihydro-1λ6,5-benzothiazepin-4-one] | 2050 | 1780 | 62 | 5560
CC(C)(c1nnc(-c2ccc3c(c2)N(Cc2ccc(SC(F)(F)F)cc2)C(=O)[C@@H](N)CS3(=O)=O)o1)S(C)(=O)=O [Example 7] | 1710 | 2300 | 76 | 3590
CC(C)(c1nnc(-c2ccc3c(c2)N(Cc2ccc(-c4ccc(C(F)(F)F)cn4)cc2)C(=O)[C@@H](N)CS3(=O)=O)o1)S(C)(=O)=O [Example 10] | 1750 | 1020 | 145 | 1160
CC(C)(c1nnc(-c2ccc3c(c2)N(Cc2ccc(OCc4ccccc4F)cc2)C(=O)[C@@H](N)CS3(=O)=O)o1)S(C)(=O)=O [Example 14, (3R)-3-amino-5-[[4-[(2-fluorophenyl)methoxy]phenyl]methyl]-7-[5-(1-methyl-1-methylsulfonyl-ethyl)-1,3,4-oxadiazol-2-yl]-1,1-dioxo-2,3-dihydro-1λ6,5-benzothiazepin-4-one] | 1110 | 2020 | 113 | 1220
CC(C)(c1nc(-c2cc3c(cc2F)S(=O)(=O)C[C@H](N)C(=O)N3Cc2ccc(C3CCOCC3)cc2)no1)S(C)(=O)=O [Example 53, (3R)-3-amino-8-fluoro-7-[5-(1-methyl-1-methylsulfonyl-ethyl)-1,2,4-oxadiazol-3-yl]-1,1-dioxo-5-[(4-tetrahydropyran-4-ylphenyl)methyl]-2,3-dihydro-1λ6,5-benzothiazepin-4-one] | – | 8050 | 167 | 3190

These reach a lower IC50 (DGKalpha). Values come first.

IC50 (DGKzeta) [nM] | IC50 (DGKalpha) [nM] | SMILES | Emax (primary human T-cells) [%] | EC50 (primary human T-cells) [nM]
1320 | 944 | CC(C)(c1nnc(-c2ccc3c(c2)N(Cc2ccc(-c4ccc(F)cn4)cc2)C(=O)[C@@H](N)CS3(=O)=O)o1)S(C)(=O)=O [Example 9, (3R)-3-amino-5-[[4-(5-fluoro-2-pyridyl)phenyl]methyl]-7-[5-(1-methyl-1-methylsulfonyl-ethyl)-1,3,4-oxadiazol-2-yl]-1,1-dioxo-2,3-dihydro-1λ6,5-benzothiazepin-4-one] | 82 | 2700
1060 | 753 | CC(C)(c1nnc(-c2ccc3c(c2)N(Cc2ccc(OCc4ccccc4)cc2)C(=O)[C@@H](N)CS3(=O)=O)o1)S(C)(=O)=O [Example 11, (3R)-3-amino-5-[(4-benzyloxyphenyl)methyl]-7-[5-(1-methyl-1-methylsulfonyl-ethyl)-1,3,4-oxadiazol-2-yl]-1,1-dioxo-2,3-dihydro-1λ6,5-benzothiazepin-4-one] | 145 | 495
802 | 669 | CC(C)(c1nnc(-c2ccc3c(c2)N(Cc2ccc(OCc4ccc(F)cc4)cc2)C(=O)[C@@H](N)CS3(=O)=O)o1)S(C)(=O)=O [Example 12, (3R)-3-amino-5-[[4-[(4-fluorophenyl)methoxy]phenyl]methyl]-7-[5-(1-methyl-1-methylsulfonyl-ethyl)-1,3,4-oxadiazol-2-yl]-1,1-dioxo-2,3-dihydro-1λ6,5-benzothiazepin-4-one] | 151 | 590
8030 | 274 | CN(Cc1ccccc1)c1ccc(CN2C(=O)[C@@H](N)CS(=O)(=O)c3ccc(-c4nnc(C(C)(C)S(C)(=O)=O)o4)cc32)cc1 [Example 15, (3R)-3-amino-5-[[4-[benzyl(methyl)amino]phenyl]methyl]-7-[5-(1-methyl-1-methylsulfonyl-ethyl)-1,3,4-oxadiazol-2-yl]-1,1-dioxo-2,3-dihydro-1λ6,5-benzothiazepin-4-one] | 85 | 2670
